Tests used:
HeLa [1] = assay: Hoechst 33342 nuclear staining (Table 3); assay type: cell-based, human; design: key: 0 relating to no activity; 1 relating to weak activity comprising less than 50% of the cells; score 2 relating to strong activity comprising more than 50% of the cells
Procedure: (§1) This assay is performed in 96 well tissue culture plates. Appropriate number of cells (adherent cells: 3 - 5*10^3, suspension cells: 8 - 10*10^3) are being seeded out in 80 µl complete medium. Adherent cells are incubated for 24 h for proper spreading out before addition of test compounds while suspension cells are immediately treated with test compounds after seeding out. The test compounds are added in 20 µl complete medium containing max 5% DMSO. The final compound concentrations in the assays are 10 µM, 3 µM,1 µM and 0.3 µM, respectively. After 24 h or 48 h incubation at culture conditions, 10 µl medium containing Hoechst 33342 dye (Sigma B-2261) at 2-5 µg/ml are added to each well. The assay plates are then further incubated for 30 minutes and subsequently analyzed with a standard inverted fluorescence microscope. The readout allows the determination of the fraction of apoptotic nuclei as well as other morphological criteria specific for apoptosis as a function of the treatment. The following scores are used: 0 relating to no activity, 1 relating to weak activity comprising less than 50% of the cells and score 2 relating to strong activity comprising more than 50% of the cells.

KB = assay: Hoechst 33342 nuclear staining (Table 3); assay type: cell-based, human; design: key: 0 relating to no activity; 1 relating to weak activity comprising less than 50% of the cells; score 2 relating to strong activity comprising more than 50% of the cells
Procedure: as §1

Jurkat [2] = assay: Hoechst 33342 nuclear staining (Table 3); assay type: cell-based, human; design: key: 0 relating to no activity; 1 relating to weak activity comprising less than 50% of the cells; score 2 relating to strong activity comprising more than 50% of the cells
Procedure: as §1

Ramos [3] = assay: Hoechst 33342 nuclear staining (Table 3); assay type: cell-based, human; design: key: 0 relating to no activity; 1 relating to weak activity comprising less than 50% of the cells; score 2 relating to strong activity comprising more than 50% of the cells
Procedure: as §1

K562 [4] = assay: Hoechst 33342 nuclear staining (Table 3); assay type: cell-based, human; design: key: 0 relating to no activity; 1 relating to weak activity comprising less than 50% of the cells; score 2 relating to strong activity comprising more than 50% of the cells
Procedure: as §1

HeLa [5] = assay: MTS proliferation assay; assay type: cell-based; settings: Homo sapiens, 72 h incubation
Procedure: (§2) The assay is performed in 96 well tissue culture plates. The cells (range : 1.5*10^3-10^4) are seeded out in 80 µl complete medium 24 h prior to compound treatment. The test compounds are added in 20 µl complete medium containing max 5% DMSO. The final compound concentrations in the assays are 10 µM, 3 µM,1 µM and 0.3 µM, respectively. The assay plates are incubated for 72 h at culture conditions. The MTS reagent is prepared according to the manufacturer's protocol (Promega G1111 ). 20 µl MTS reagent are added to each well, the assay plates are quickly spun and incubated for another 3 h at culture conditions. Subsequently, the plates are shortly shaked and absorption measured with a microplate-reader at 492 nm.

Jurkat [6] = assay: MTS proliferation assay; assay type: cell-based; settings: Homo sapiens, 72 h incubation
Procedure: as §2

K562 [7] = assay: MTS proliferation assay; assay type: cell-based; settings: Homo sapiens, K562, 72 h incubation
Procedure: as §2

HeLa [8] = assay: AnnexinV/7-AAD staining; assay type: cell-based, human; settings: 10 µM, 24 h treatment
Procedure: (§3) Adherent cells (1 - 2*10^5) are 24 h prior to compound treatment seeded into 24 well tissue culture plates. Suspension cells are pipetted into P-tubes immediately before treatment. Test compounds are added leading to a final concentrations of 10 µM. After 24 h treatment cells are harvested (in case of adherent cells by trypsinization) and transferred to FACS tubes (BD Biosciences). After centrifugation and removal of the supernatant, 100 µl complete medium containing AnnexinV-GST (10 µg) is added, mixed and incubated at 4°C for 30 minutes. Subsequently, the cells are washed once with medium and incubated with 100 µl anti-GST Alexa 488 (Molecular Probes A-11131) in medium diluted 1:500 for 30 minutes at 4°C. Then, cells are washed once and stained with 1 µg/ml 7-aminoactinomycin D (7-AAD) (Molecular Probes A-1310) in 250 µl medium and analyzed on the FACSCalibur™. AnnexinV is measured in FL1 whereas 7-AAD is measured in FL3. In Table 5 the percentage of positively stained cells after treatment with the respective compounds are indicated. The following scores are used: Score 0 relates to less than 10%, score 1 relates to more than 10% but less than 50% and score 2 relates to more than 50% positivity.

Jurkat [9] = assay: AnnexinV/7-AAD staining; assay type: cell-based, human; settings: 10 µM, 24 h treatment
Procedure: as §3

Ramos [10] = assay: AnnexinV/7-AAD staining; assay type: cell-based, human; settings: 10 µM, 24 h treatment
Procedure: as §3

A20 = assay: AnnexinV/7-AAD staining; assay type: cell-based, mouse; settings: A20, 10 µM, 24 h treatment
Procedure: as §3

IC50 (HeLa [5]): > 10 µM
IC50 (Jurkat [6]): > 10 µM
IC50 (K562 [7]): > 10 µM
SMILES: CC1(C)Cc2ccccc2-c2c(C(=O)C(F)(F)F)c3nc4ccccc4nc3n21 [No. 4, 1-(6,6-Dimethyl-5,6-dihydro-6a,7,12-triaza-dibenzo[a,h]fluoren-13-yl)-2,2,2-trifluoro-ethanone]
Hoechst 33342 nuclear staining (HeLa [1]; 24h, conc 0.3 (µM)): 0
Hoechst 33342 nuclear staining (HeLa [1]; 24h, conc 1 (µM)): 0
Hoechst 33342 nuclear staining (HeLa [1]; 24h, conc 3 (µM)): 0
Hoechst 33342 nuclear staining (HeLa [1]; 24h, conc 10 (µM)): 2 (score 2 relating to strong activity comprising more than 50% of the cells)
Hoechst 33342 nuclear staining (HeLa [1]; 48h, conc 0.3 (µM)): 0
Hoechst 33342 nuclear staining (HeLa [1]; 48h, conc 1 (µM)): 0
Hoechst 33342 nuclear staining (HeLa [1]; 48h, conc 3 (µM)): 2 (score 2 relating to strong activity comprising more than 50% of the cells)
Hoechst 33342 nuclear staining (HeLa [1]; 48h, conc 10 (µM)): 2 (score 2 relating to strong activity comprising more than 50% of the cells)
Hoechst 33342 nuclear staining (KB; 24h, conc 0.3 (µM)): 0
Hoechst 33342 nuclear staining (KB; 24h, conc 1 (µM)): 0
Hoechst 33342 nuclear staining (KB; 24h, conc 3 (µM)): 0
Hoechst 33342 nuclear staining (KB; 24h, conc 10 (µM)): 2 (score 2 relating to strong activity comprising more than 50% of the cells)
Hoechst 33342 nuclear staining (KB; 48h, conc 0.3 (µM)): 0
Hoechst 33342 nuclear staining (KB; 48h, conc 1 (µM)): 0
Hoechst 33342 nuclear staining (KB; 48h, conc 3 (µM)): 2 (score 2 relating to strong activity comprising more than 50% of the cells)
Hoechst 33342 nuclear staining (KB; 48h, conc 10 (µM)): 2 (score 2 relating to strong activity comprising more than 50% of the cells)
Hoechst 33342 nuclear staining (Jurkat [2]; 24h, conc 0.3 (µM)): 0
Hoechst 33342 nuclear staining (Jurkat [2]; 24h, conc 1 (µM)): 0
Hoechst 33342 nuclear staining (Jurkat [2]; 24h, conc 3 (µM)): 2 (score 2 relating to strong activity comprising more than 50% of the cells)
Hoechst 33342 nuclear staining (Jurkat [2]; 24h, conc 10 (µM)): 2 (score 2 relating to strong activity comprising more than 50% of the cells)
Hoechst 33342 nuclear staining (Jurkat [2]; 48h, conc 0.3 (µM)): 0
Hoechst 33342 nuclear staining (Jurkat [2]; 48h, conc 1 (µM)): 2 (score 2 relating to strong activity comprising more than 50% of the cells)
Hoechst 33342 nuclear staining (Jurkat [2]; 48h, conc 3 (µM)): 2 (score 2 relating to strong activity comprising more than 50% of the cells)
Hoechst 33342 nuclear staining (Jurkat [2]; 48h, conc 10 (µM)): 2 (score 2 relating to strong activity comprising more than 50% of the cells)
Hoechst 33342 nuclear staining (Ramos [3]; 24h, conc 0.3 (µM)): 1 (1 relating to weak activity comprising less than 50% of the cells)
Hoechst 33342 nuclear staining (Ramos [3]; 24h, conc 1 (µM)): 2 (score 2 relating to strong activity comprising more than 50% of the cells)
Hoechst 33342 nuclear staining (Ramos [3]; 24h, conc 3 (µM)): 2 (score 2 relating to strong activity comprising more than 50% of the cells)
Hoechst 33342 nuclear staining (Ramos [3]; 24h, conc 10 (µM)): 2 (score 2 relating to strong activity comprising more than 50% of the cells)
Hoechst 33342 nuclear staining (Ramos [3]; 48h, conc 0.3 (µM)): 1 (1 relating to weak activity comprising less than 50% of the cells)
Hoechst 33342 nuclear staining (Ramos [3]; 48h, conc 1 (µM)): 2 (score 2 relating to strong activity comprising more than 50% of the cells)
Hoechst 33342 nuclear staining (Ramos [3]; 48h, conc 3 (µM)): 2 (score 2 relating to strong activity comprising more than 50% of the cells)
Hoechst 33342 nuclear staining (Ramos [3]; 48h, conc 10 (µM)): 2 (score 2 relating to strong activity comprising more than 50% of the cells)
Hoechst 33342 nuclear staining (K562 [4]; K562, 24h, conc 0.3 (µM)): 0
Hoechst 33342 nuclear staining (K562 [4]; K562, 24h, conc 1 (µM)): 1 (1 relating to weak activity comprising less than 50% of the cells)
Hoechst 33342 nuclear staining (K562 [4]; K562, 24h, conc 3 (µM)): 2 (score 2 relating to strong activity comprising more than 50% of the cells)
Hoechst 33342 nuclear staining (K562 [4]; K562, 24h, conc 10 (µM)): 2 (score 2 relating to strong activity comprising more than 50% of the cells)
Hoechst 33342 nuclear staining (K562 [4]; K562, 48h, conc 0.3 (µM)): 0
Hoechst 33342 nuclear staining (K562 [4]; K562, 48h, conc 1 (µM)): 2 (score 2 relating to strong activity comprising more than 50% of the cells)
Hoechst 33342 nuclear staining (K562 [4]; K562, 48h, conc 3 (µM)): 2 (score 2 relating to strong activity comprising more than 50% of the cells)
Hoechst 33342 nuclear staining (K562 [4]; K562, 48h, conc 10 (µM)): 2 (score 2 relating to strong activity comprising more than 50% of the cells)
percentage of positively stained cells (AnnexinV/7-AAD staining) (HeLa [8]): 1 (score 1 relates to more than 10% but less than 50%)
percentage of positively stained cells (AnnexinV/7-AAD staining) (Jurkat [9]): 2 (score 2 relates to more than 50% positivity)
percentage of positively stained cells (AnnexinV/7-AAD staining) (Ramos [10]): 2 (score 2 relates to more than 50% positivity)
percentage of positively stained cells (AnnexinV/7-AAD staining) (A20): 1 (score 1 relates to more than 10% but less than 50%)
